Experimental data published in ChEMBL document CHEMBL1201862, “PubChem BioAssay data set” (2004).
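48-hour exposure; five concentrations; linearly interpolated endpoints. GI50: concentration for 50% inhibition of growth.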 Active and inactive are the calls of the source. Cut-off read from the data, not from the text of the source: active = GI50 up to about 1.1 µM and inactive = higher.

Experiments:
Assay in all cases: NCI-60 cell line screen, 48 h
COLO 205 = test system: COLO 205
K562 = test system: K562
IGROV-1 = test system: IGROV-1
T47D = test system: T47D
SF-268 = test system: SF-268
NCI-H460 = test system: NCI-H460
LOX IMVI = test system: LOX IMVI
M14 = test system: M14
MDA-N = test system: MDA-N
SNB-75 = test system: SNB-75
A498 = test system: A498
UO-31 = test system: UO-31
NCI-H23 = test system: NCI-H23
SK-OV-3 = test system: SK-OV-3
OVCAR-8 = test system: OVCAR-8
SNB-19 = test system: SNB-19
DU-145 = test system: DU-145
UACC-62 = test system: UACC-62
OVCAR-4 = test system: OVCAR-4
MDA-MB-231 = test system: MDA-MB-231

Measured: GI50

CC(=O)c1c[nH]cc1CO
inactive: COLO 205 > 10 µM | K562 > 10 µM | IGROV-1 > 10 µM | T47D > 10 µM | SF-268 > 10 µM | NCI-H460 > 10 µM | LOX IMVI > 10 µM | M14 > 10 µM | MDA-N > 10 µM | SNB-75 > 10 µM | A498 > 10 µM | UO-31 > 10 µM | NCI-H23 > 10 µM | SK-OV-3 > 10 µM | OVCAR-8 > 10 µM | SNB-19 > 10 µM

O=C1CN(c2ccccc2)C(=O)CN1NCNN1CC(=O)N(c2ccccc2)CC1=O
inactive: COLO 205 > 100 µM | IGROV-1 > 100 µM | SF-268 > 100 µM | DU-145 > 100 µM | NCI-H460 > 100 µM | M14 > 100 µM | MDA-N > 100 µM | SNB-75 > 100 µM | A498 > 100 µM | UO-31 > 100 µM | NCI-H23 58.5 µM | SK-OV-3 > 100 µM | UACC-62 > 100 µM | OVCAR-8 > 100 µM | OVCAR-4 > 100 µM | SNB-19 > 100 µM

Cc1ccc(S(=NS(=O)(=O)c2ccc(C)cc2)c2ccc(C)cc2)cc1
inactive: COLO 205 54.7 µM | K562 36.1 µM | T47D 56 µM | SF-268 76.2 µM | DU-145 > 100 µM | NCI-H460 > 100 µM | M14 > 100 µM | MDA-N 77.1 µM | UO-31 63.7 µM | NCI-H23 51.6 µM | OVCAR-8 71.6 µM | SNB-19 > 100 µM

CCc1c2c([nH]c(=S)c1C#N)CCC2
inactive: COLO 205 > 100 µM | K562 > 100 µM | IGROV-1 > 100 µM | SF-268 > 100 µM | DU-145 > 100 µM | NCI-H460 > 100 µM | MDA-MB-231 > 100 µM | LOX IMVI > 100 µM | M14 > 100 µM | MDA-N > 100 µM | SNB-75 > 100 µM | A498 > 100 µM | UO-31 > 100 µM | NCI-H23 > 100 µM | SK-OV-3 > 100 µM | UACC-62 > 100 µM | OVCAR-8 > 100 µM | OVCAR-4 > 100 µM | SNB-19 > 100 µM

O=Cc1ccc2c(c1)CC1(Cc3ccccc3C1)C2
inactive: COLO 205 21.8 µM | K562 22.1 µM | IGROV-1 20.5 µM | T47D 25.9 µM | MDA-MB-231 13.5 µM | LOX IMVI 18.4 µM | M14 13.1 µM | MDA-N 18.7 µM | A498 30.3 µM | UO-31 31.3 µM | NCI-H23 23.3 µM | SK-OV-3 38.1 µM | UACC-62 2.38 µM | OVCAR-8 19.3 µM | OVCAR-4 17.6 µM

CN(C)Cc1c(O)ccc2c1c1c(n2C)C(=O)c2ccccc2C1=O
inactive: COLO 205 6.76 µM | K562 3.12 µM | IGROV-1 3.73 µM | T47D 11.7 µM | SF-268 7.85 µM | DU-145 3.75 µM | NCI-H460 1.85 µM | MDA-MB-231 7.8 µM | LOX IMVI 1.79 µM | M14 11.2 µM | SNB-75 12.3 µM | A498 4.43 µM | UO-31 4.01 µM | NCI-H23 5.12 µM | SK-OV-3 20.2 µM | UACC-62 3.55 µM | OVCAR-8 5.46 µM | OVCAR-4 4.28 µM | SNB-19 6.19 µM

C[N+](C)(C)c1ncnc2c1ncn2C1CCCO1 (centres undefined)
inactive: COLO 205 > 100 µM | K562 > 100 µM | IGROV-1 > 100 µM | T47D > 100 µM | SF-268 > 100 µM | DU-145 > 100 µM | NCI-H460 > 100 µM | M14 > 100 µM | MDA-N > 100 µM | SNB-75 84.9 µM | A498 > 100 µM | UO-31 > 100 µM | NCI-H23 > 100 µM | SK-OV-3 > 100 µM | UACC-62 > 100 µM | OVCAR-8 > 100 µM | OVCAR-4 > 100 µM | SNB-19 > 100 µM

COc1nc2c(c(=O)[nH]1)N=C(c1ccc([N+](=O)[O-])cc1)CC(c1ccccc1)N2 (centres undefined)
inactive: COLO 205 > 100 µM | K562 58.2 µM | IGROV-1 > 100 µM | DU-145 > 100 µM | NCI-H460 73.6 µM | MDA-MB-231 > 100 µM | LOX IMVI 38.4 µM | M14 > 100 µM | MDA-N > 100 µM | SNB-75 32.8 µM | A498 > 100 µM | UO-31 62.4 µM | NCI-H23 69.8 µM | UACC-62 59.2 µM | OVCAR-8 > 100 µM | OVCAR-4 62.8 µM | SNB-19 > 100 µM

NC1=NCC(c2ccccn2)C1c1ccc(F)cc1 (centres undefined)
inactive: COLO 205 > 100 µM | K562 > 100 µM | IGROV-1 > 100 µM | SF-268 > 100 µM | NCI-H460 > 100 µM | LOX IMVI > 100 µM | M14 > 100 µM | SNB-75 > 100 µM | A498 > 100 µM | UO-31 > 100 µM | NCI-H23 > 100 µM | SK-OV-3 > 100 µM | UACC-62 > 100 µM | OVCAR-8 > 100 µM | OVCAR-4 > 100 µM | SNB-19 > 100 µM

CC(Nc1ncc2c(n1)-c1ccccc1OC2)C(=O)O (centres undefined)
inactive: COLO 205 35.6 µM | K562 99.8 µM | IGROV-1 25.2 µM | SF-268 > 100 µM | DU-145 30.3 µM | NCI-H460 > 100 µM | MDA-MB-231 92.7 µM | LOX IMVI > 100 µM | M14 > 100 µM | MDA-N > 100 µM | SNB-75 40.7 µM | UO-31 41.2 µM | NCI-H23 86.5 µM | SK-OV-3 > 100 µM | UACC-62 > 100 µM | OVCAR-8 > 100 µM | OVCAR-4 > 100 µM | SNB-19 > 100 µM

CC(=O)C(C(=O)c1ccc(C)cc1)[C@H]1OC(C)(C)O[C@H]1[C@H]1COC(C)(C)O1 (some centres undefined)
inactive: COLO 205 10.3 µM | K562 1.78 µM | IGROV-1 3.17 µM | T47D 6.53 µM | SF-268 2.81 µM | NCI-H460 7.05 µM | MDA-MB-231 5.82 µM | LOX IMVI 2.06 µM | M14 6.9 µM | MDA-N 1.85 µM | SNB-75 3.78 µM | A498 7.55 µM | UO-31 6.98 µM | NCI-H23 2.07 µM | SK-OV-3 10.3 µM | UACC-62 6.1 µM | OVCAR-8 1.9 µM | OVCAR-4 2.53 µM | SNB-19 9.95 µM

C[N+](C)(C)CC(=O)N/N=C(/C=C/c1ccccc1)CC1OC(=O)c2ccccc21 (centres undefined)
inactive: COLO 205 > 100 µM | K562 > 100 µM | IGROV-1 > 100 µM | SF-268 > 100 µM | NCI-H460 > 100 µM | LOX IMVI > 10 µM | M14 > 100 µM | SNB-75 > 100 µM | A498 > 100 µM | UO-31 > 100 µM | NCI-H23 > 10 µM | SK-OV-3 > 100 µM | UACC-62 > 100 µM | OVCAR-8 > 100 µM | OVCAR-4 > 100 µM | SNB-19 > 100 µM

COc1ccc(/C=c2/sc3n(c2=O)C(c2ccccc2)C2(O)CCCCC2N=3)cc1 (centres undefined)
inactive: K562 > 12.5 µM | IGROV-1 > 12.5 µM | T47D > 12.5 µM | SF-268 > 12.5 µM | NCI-H460 > 12.5 µM | LOX IMVI > 12.5 µM | M14 > 12.5 µM | MDA-N > 12.5 µM | SNB-75 > 12.5 µM | UO-31 > 12.5 µM | NCI-H23 > 12.5 µM | UACC-62 > 12.5 µM | OVCAR-8 > 12.5 µM | OVCAR-4 > 12.5 µM | SNB-19 > 12.5 µM

ClCCc1ccccc1CC1=NCCc2ccccc21
inactive: COLO 205 24 µM | K562 28.4 µM | IGROV-1 32 µM | T47D 21.9 µM | SF-268 29 µM | DU-145 > 100 µM | NCI-H460 25.8 µM | MDA-MB-231 38.1 µM | LOX IMVI 76.7 µM | M14 24.5 µM | SNB-75 22 µM | A498 37.6 µM | UO-31 14.4 µM | NCI-H23 21.5 µM | SK-OV-3 44.7 µM | UACC-62 28.6 µM | OVCAR-8 28.4 µM | OVCAR-4 43.5 µM | SNB-19 18.1 µM

COc1cc(C2S/C(=C/c3ccccc3)C(=O)N2c2cccc(Cl)c2)cc(OC)c1OC (centres undefined)
inactive: COLO 205 > 100 µM | K562 21.1 µM | IGROV-1 56.9 µM | SF-268 77.1 µM | DU-145 23.1 µM | NCI-H460 34.4 µM | MDA-MB-231 > 100 µM | LOX IMVI 21.1 µM | M14 62.8 µM | MDA-N 30.2 µM | A498 69.7 µM | UO-31 23.7 µM | NCI-H23 94.4 µM | SK-OV-3 > 100 µM | UACC-62 9.4 µM | OVCAR-8 57.8 µM | OVCAR-4 29.8 µM | SNB-19 42.9 µM

C/C(=N\NC(=O)c1ccncc1)c1cccc(F)c1
inactive: COLO 205 > 10 µM | K562 > 10 µM | IGROV-1 > 10 µM | T47D > 10 µM | SF-268 > 10 µM | NCI-H460 > 10 µM | LOX IMVI > 10 µM | M14 > 10 µM | MDA-N > 10 µM | SNB-75 > 10 µM | A498 > 10 µM | UO-31 > 10 µM | NCI-H23 > 10 µM | SK-OV-3 > 10 µM | OVCAR-8 > 10 µM | SNB-19 > 10 µM
